Measurements as given in ChEMBL document CHEMBL1141133, “Synthesis of a resveratrol analogue with high ceramide-mediated proapoptotic activity on human breast cancer cells” (J Med Chem, 2005).

Tested on: MDA-MB-231
Assay: Inhibitory concentration required for antiproliferative activity against human MDA-MB-231 cells
Type: functional, cell-based

| SMILES | IC50 |
| --- | --- |
| COc1ccc2cc(-c3cc(O)cc(O)c3)ccc2c1 | 28.3 µM |
| COc1cc(OC)cc(-c2ccc3cc(OC)ccc3c2)c1 | 45.1 µM |
| Oc1cc(O)cc(-c2ccc3cc(O)ccc3c2)c1 | 12.7 µM |
| COc1cc(OC)cc(-c2ccc3cc(O)ccc3c2)c1 | 7.2 µM |
| COc1cc(/C=C/c2ccc(O)cc2)cc(OC)c1 [PTEROSTILBENE] | 10 µM |
| COc1ccc(/C=C/c2cc(O)cc(O)c2)cc1 [RESVERATROL 4'-METHYL ETHER] | > 50 µM |
| Oc1ccc(/C=C/c2cc(O)cc(O)c2)cc1 [RESVERATROL] | 20.5 µM |
| COc1ccc(/C=C/c2cc(OC)cc(OC)c2)cc1 [TRISMETHOXYRESVERATROL] | 1.2 µM |
